Source: US11160817B2, “Nutritional compositions comprising neuroprotective dietary oligosaccharides” (ABBOTT LABORATORIES, priority 2012, dated 2021)
Read-outs that look alike come from different tables or passages of the source. Marks after values point to notes of the source that are not given here.

Columns and labels:
[1] = test system: fecal samples from formula-fed infants (intestinal flora); assay: Anaerobic fermentation of HMOs with fecal inocula of formula-fed infants, agmatine in supernatant by GC/MS and LC/MS/MS; type: cell-based, human; details: for Increase of agmatine, HMO/blank (relative ratio of agmatine compared to the blank): formula fed infants, fermentation culture 37° C.
Description: (§1) Fecal samples from eight human babies, one group of four breast-fed and the other group of four formula-fed, were used as inocula for anaerobic fermentation (37° C.) of lacto-N-neotetraose (LNnT) and 2′-fucosyllactose. Supernatants from the fermentation cultures were sampled at 0 hr, 3 hr, and 6 hr. A culture without addition of HMOs served as a control. A sample of the fermentation medium (blank), which constituted approximately 90% of the starting culture volume, was also analyzed.
(§2) Samples were extracted and split into equal parts for analysis on GC/MS and LC/MS/MS platforms. Agmatine ions were identified in chromatograms, and peak area was integrated for quantitative analysis.

[2] = test system: fecal samples from breast-fed infants (intestinal flora); assay: Anaerobic fermentation of HMOs with fecal inocula of breast-fed infants, agmatine in supernatant by GC/MS and LC/MS/MS; type: cell-based, human; details: for Increase of agmatine, HMO/blank (relative ratio of agmatine compared to the blank): breast fed infants, fermentation culture 37° C.
Description: as §1, §2

[3] = mice, peripheral injection at 50 and 300 mg/kg; cited from earlier work
[4] = test system: NMDA subclass of glutamate receptors; details: cited from earlier work
[5] = test system: nitric oxide synthase (NOS), all isoforms; details: cited from earlier work
[6] = non-human primates, peripheral injection at 50 and 300 mg/kg; cited from earlier work

SMILES: CC(=O)N[C@H]1[C@H](O[C@H]2[C@@H](O)[C@@H](CO)O[C@@H](O[C@H]3[C@H](O)[C@@H](O)C(O)O[C@@H]3CO)[C@@H]2O)O[C@H](CO)[C@@H](O[C@@H]2O[C@H](CO)[C@H](O)[C@H](O)[C@H]2O)[C@@H]1O (mixture of isomers) [LNnT, lacto-N-neotetraose]
- agmatine relative to a blank (in words) ([1]; fecal samples from formula-fed infants (FF)): dramatic increases in agmatine
- Increase of agmatine, HMO/blank (relative ratio of agmatine compared to the blank) ([1]; 0 h): 2.12
- Increase of agmatine, HMO/blank (relative ratio of agmatine compared to the blank) ([1]; 3 h): 61.77^a
- Increase of agmatine, HMO/blank (relative ratio of agmatine compared to the blank) ([1]; 6 h): 75.02^a
- Increase of agmatine, HMO/blank (relative ratio of agmatine compared to the blank) ([2]; 0 h): 9.52^a
- Increase of agmatine, HMO/blank (relative ratio of agmatine compared to the blank) ([2]; 3 h): 34.4
- Increase of agmatine, HMO/blank (relative ratio of agmatine compared to the blank) ([2]; 6 h): 1.59
- agmatine relative to a blank (in words) ([2]; fecal samples from breast-fed infants (BF)): dramatic increases in agmatine

SMILES: N=C(N)NCCCCN [agmatine]
- brain agmatine concentrations [3]: significant increases in brain agmatine concentrations
- affinity for the NMDA subclass of glutamate receptors [4]: modest affinity
- inhibition of NOS isoforms [5]: inhibit all isoforms of NOS
- nitric oxide production [5]: suppress nitric oxide production
- brain agmatine concentrations [6]: significant increases in brain agmatine concentrations
